Results from US12453735B2, “Treating cancer with a CCK receptor inhibitor and an immune checkpoint inhibitor” (GEORGETOWN UNIVERSITY, priority 2017, dated 2025).
“Also recorded” adds a separate entry of the source.

Columns and labels:
Panc02 cells [1] = test: Orthotopic Panc02 pancreatic tumors in SCID mice; format: in vivo, mouse
From the text: (§1) Animal Models—Three different murine models were used in this investigation: 1) severe combined immune deficiency (B6.CB17-Prkdc^scid/SzJ; SCID) mice to study the role of CCKR blockade on orthotopic cancer growth and metastasis independent of immune cells, 2) immune competent Pdx1-Cre/LSL-Kras^G12D transgenic mice for a pancreatic carcinogenesis model to study the role of CCKR blockade on the pancreatic stellate cells and immune cells of the pancreas, and 3) immune competent C57BL/6 mice to study the role of CCKR antagonist in combination with immune checkpoint antibodies on growth and survival of mice bearing syngeneic PDAC tumors. Institutional guidelines for care and use of laboratory animals were followed throughout the study in accordance with protocols approved by the Georgetown University Institutional Animal Use and Care Committee.
(§2) Four weeks after tumor inoculation mice were euthanized, tumors removed and weighed, and the number of metastases counted. TILs were evaluated in tumors of the C57BL/6 mice by immunohistochemistry and fibrosis assessed with Masson's trichrome stain.

Panc02 cells [2] = test: Orthotopic Panc02 pancreatic tumors in immune competent C57BL/6 mice; format: in vivo, mouse
From the text: as §1, §2

Panc02 cells [3] = test: Subcutaneous Panc02 tumors in C57BL/6 mice, CCKR antagonist and PD-1 antibody; format: in vivo, mouse; details: vs PBS; for tumor size / tumor volume: Panc02 in C57BL/6, L364,718 4 mg/kg tiw ip, PD-1 antibody 125 μg×3 injections
Protocol: (§3) Cells were cultured in DMEM: F12 media with 10% FBS. […] In the following series of experiments Panc02 cells (1×10^6 or 2×10^6) were injected either orthotopically or subcutaneously in animals.
(§4) Treatments—Two different CCK receptor antagonists were used in this investigation. […] The other CCK receptor antagonist used was proglumide which is an orally bioavailable nonselective antagonist that blocks both the CCK-A and CCK-B receptors. Proglumide (Tocris Bioscience) was administered in the drinking water at a concentration of 0.1 mg/mL, or approximately 30 mg/kg/d per mouse.
(§5) Two immune checkpoint blockade antibodies were used in this investigation. The antibody to the programmed cell death protein 1 (PD1-Ab) (Bio X cell, West Lebanon, NH) was administered intraperitoneally to mice at a dose of either 125 μg×3 injections or 200 μg every 3 days.
(§6) Another series of experiments was performed in C57BL/6 mice to evaluate the role of CCKR blockade in combination with immune checkpoint antibody therapy. Each series of experiments was performed using 40 mice with syngeneic murine tumors. […] The primary end point was tumor volume (1,000 mm^3) or mouse survival. Tumors were excised and examined histologically, and by immunohistochemistry, or by flow cytometry for immune cells.
(§7) Tumor sections were also stained with either CD3 antibodies (1:85; DAKO, Carpinteria, CA); CD8 antibodies (1:75; eBioscience, San Diego, CA); CD4 antibodies (1:225; eBioscience), or FoxP3 antibody (1:30; eBioscience) and immunoreactive cells counted manually.

pancreatic primary tumor = details: immune competent mouse, 4 mg/kg three times weekly ip; cited from earlier work
pancreatic cancer tumor = details: immune deficient nude mouse, 2 mg/kg twice daily; cited from earlier work
Panc02 cells [4] = test: Survival and tumor immune cells of C57BL/6 mice bearing subcutaneous Panc02 tumors, CCKR antagonist and CTLA-4 antibody
Protocol: as §3, §4, §5, §6, §7

[5] = test system: pancreas of Pdx1-Cre/LSL-Kras^G12D transgenic mouse; test: Pancreatic carcinogenesis model, Pdx1-Cre/LSL-Kras^G12D transgenic mice; format: in vivo; details: proglumide in drinking water for 4 months
From the text: as §1
The second series of experiments was performed to analyze the role of CCKR antagonist monotherapy on the TILs of the pancreas microenvironment during pancreatic carcinogenesis using the Pdx1-Cre/LSL-Kras^G12D transgenic mouse. After the mice reached 3-4 months of age, when PanINs and fibrosis are established, mice were treated with either proglumide (in the drinking water) or untreated water. After 4 months of therapy, the pancreata were excised and compared to the pancreas of age-matched litter mates of mice on untreated water. […]

Panc02 cells [6] = details: 2×10^6 Panc02 cells, vs PBS
Protocol: as §3
(§8) Subcutaneous tumor volumes were measured with calipers weekly in animals bearing subcutaneous tumors using the formula Length×(width)^2×0.5.
as §4
Two immune checkpoint blockade antibodies were used in this investigation. […] The antibody to cytotoxic T-lymphocyte-associated antigen 4 (CTLA-4 Ab; Bio-X cell, West Lebanon, NH) was given at a dose of 200 μg every 3 days by intraperitoneal injections.
Another series of experiments was performed in C57BL/6 mice to evaluate the role of CCKR blockade in combination with immune checkpoint antibody therapy. Each series of experiments was performed using 40 mice with syngeneic murine tumors. […]
Comparisons were made by ANOVA and student's t-test. […] Survival was analyzed by Kaplan Meier analysis and differences by hazard ratios using Prism Software (GraphPad software, Inc., San Diego, CA). […]

CCK-B receptor = molecular target: T1, CCK-B receptor (Homo sapiens, UniProt P32239); details: cited from earlier work
T1 sequence (P32239 1-447): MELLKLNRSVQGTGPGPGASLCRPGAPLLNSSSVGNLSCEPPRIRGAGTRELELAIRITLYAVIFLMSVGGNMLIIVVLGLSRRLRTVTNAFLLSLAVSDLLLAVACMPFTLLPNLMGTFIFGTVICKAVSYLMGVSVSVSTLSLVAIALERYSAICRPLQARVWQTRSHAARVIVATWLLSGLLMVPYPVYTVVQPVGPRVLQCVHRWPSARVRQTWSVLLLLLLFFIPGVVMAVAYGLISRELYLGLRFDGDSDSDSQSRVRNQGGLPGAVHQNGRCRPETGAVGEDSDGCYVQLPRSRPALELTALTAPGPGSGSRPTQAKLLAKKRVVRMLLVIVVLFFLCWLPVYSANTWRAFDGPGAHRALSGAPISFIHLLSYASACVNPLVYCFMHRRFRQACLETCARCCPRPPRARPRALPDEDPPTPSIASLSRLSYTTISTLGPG

[7] = cited from earlier work
CCK-A receptor = molecular target: T2, CCK-A receptor (Homo sapiens, UniProt P32238); details: cited from earlier work
T2 sequence (P32238 1-428): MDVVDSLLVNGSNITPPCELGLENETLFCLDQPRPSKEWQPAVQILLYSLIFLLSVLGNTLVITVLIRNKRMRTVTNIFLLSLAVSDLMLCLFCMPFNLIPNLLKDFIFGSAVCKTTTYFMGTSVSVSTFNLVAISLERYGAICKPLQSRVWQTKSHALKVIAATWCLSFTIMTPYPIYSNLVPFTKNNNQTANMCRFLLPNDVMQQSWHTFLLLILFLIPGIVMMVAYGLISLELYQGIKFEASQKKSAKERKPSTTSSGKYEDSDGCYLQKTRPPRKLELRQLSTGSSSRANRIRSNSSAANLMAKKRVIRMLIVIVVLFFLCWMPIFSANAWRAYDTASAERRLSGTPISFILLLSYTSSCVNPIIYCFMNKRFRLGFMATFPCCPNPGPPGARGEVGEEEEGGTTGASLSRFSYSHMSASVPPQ

[8] = Panc02 tumors, immunohistochemistry

Protocol for mT3 cells: The cell line is also syngeneic to C57BL/6 mice; and therefore, capable of being studied in immune competent mice.
as §8
Proglumide (Tocris Bioscience) was administered in the drinking water at a concentration of 0.1 mg/mL, or approximately 30 mg/kg/d per mouse.
The antibody to the programmed cell death protein 1 (PD1-Ab) (Bio X cell, West Lebanon, NH) was administered intraperitoneally to mice at a dose of either 125 μg×3 injections or 200 μg every 3 days.
In the 4th experiment, the mT3 cells (1×10^5) were injected and mice were treated with PBS, proglumide, the PD-1 antibody, or the combination of both compounds. […] The primary end point was tumor volume (1,000 mm^3) or mouse survival. Tumors were excised and examined histologically, and by immunohistochemistry, or by flow cytometry for immune cells.
Some tumors were stained with an antibody to α-SMA (Abeam; Ab124964 at 1:6000). Tumor sections were also stained with either CD3 antibodies (1:85; DAKO, Carpinteria, CA); CD8 antibodies (1:75; eBioscience, San Diego, CA); CD4 antibodies (1:225; eBioscience), or FoxP3 antibody (1:30; eBioscience) and immunoreactive cells counted manually.

CN1C(=O)[C@@H](NC(=O)c2cc3ccccc3[nH]2)N=C(c2ccccc2)c2ccccc21 [L364,718, Devazepide]
primary tumor weight (Panc02 cells [1]; orthotopic 10^6 Panc02 cells, 4 mg/kg three times a week ip, four weeks, vs PBS): significantly reduced the primary tumor weight | metastases (Panc02 cells [1]; orthotopic Panc02, 4 mg/kg three times a week ip, 75% of untreated SCID mice had metastases): no metastases | metastases (Panc02 cells [2]; C57BL/6 mice, orthotopic Panc02, 4 mg/kg three times a week ip): decreased metastases | primary tumor size (Panc02 cells [2]; C57BL/6 mice, orthotopic Panc02, 4 mg/kg three times a week ip, vs PBS): did not alter the primary tumor size | CD3+ lymphocytes in tumor by immunohistochemistry (Panc02 cells [2]; orthotopic Panc02 tumors, C57BL/6 mice, vs PBS): significant increase in CD3+ lymphocytes | tumor size / tumor volume (Panc02 cells [3]): did not significantly decrease the tumor size | tumor size / tumor volume (Panc02 cells [3]; listed as L-364,718): not significantly smaller | CD4+ cells in tumor (immunohistochemistry) (Panc02 cells [3]; Panc02 tumors): increased | CD8+ cells in tumor (immunohistochemistry) (Panc02 cells [3]; Panc02 tumors): increased | inhibition of pancreatic primary tumor growth (pancreatic primary tumor): insufficient dose, by itself, to inhibit pancreatic primary tumor growth | number of metastases (pancreatic primary tumor): did decrease the number of metastases | pancreatic cancer tumor size (pancreatic cancer tumor): significant reduction in pancreatic cancer tumor size | average CD4+ cell numbers in tumor (Panc02 cells [4]; [8]): increased | average CD8+ cell numbers in tumor (Panc02 cells [4]; [8]): increased | mice still alive at day 50 (Panc02 cells [4]; subcutaneous Panc02, C57BL/6, all PBS controls had died by day 50): 42%

CCCN(CCC)C(=O)C(CCC(=O)O)NC(=O)c1ccccc1 (stereo not shown) [proglumide]
fibrosis of tumor microenvironment (Masson's trichrome stain) (Panc02 cells [2]; orthotopic Panc02 tumors, vs PBS/vehicle): marked decreased fibrosis | fibrosis of the pancreas microenvironment (trichrome stain) ([5]; vs age-matched controls): significantly diminished fibrosis; also recorded: significantly reversed fibrosis | CD3+ cells in mouse pancreas ([5]; vs untreated water): significant increase in the CD3+ cells | prolonged life (Panc02 cells [6]): 5 days | survived longer than PBS control mice (mT3 cells; mT3 pancreatic cancers, average): 12 days | number of Foxp3+ cells (Tregs) (mT3 cells; mT3 tumors, vs PBS): decreased | tumor-associated fibrosis by Masson's trichrome stain (mT3 cells; mT3 tumors, vs PBS): noticeably less | α-SMA immunoreactivity (activated fibroblasts) (mT3 cells; mT3 tumors, vs PBS): somewhat decreased with proglumide, but this change was not statistically significant | quantitative analysis of intratumoral fibrosis (mT3 cells; mT3 tumors, vs PBS controls and PD-1 monotherapy, p<0.01): significantly less fibrosis | growth of mT3 tumors / tumor size (mT3 cells; proglumide 0.1 mg/mL drinking water, PD-1 antibody 200 μg every three days, vs PBS): significantly slowed tumor growth; also recorded: significantly slower | antagonism at the CCK-B receptor (CCK-B receptor): inhibitory properties at both the CCK-A and CCK-B receptor types | water solubility [7]: water soluble | antagonism at the CCK-A receptor (CCK-A receptor): weaker nonselective CCK antagonist
